{"source": "patent US9958433B2", "about": "“Method and system for in vitro developmental toxicity testing” (Agency for Science, Technology and Research, priority 2012, dated 2018)", "key": {"[1]": {"system": "micropatterned hESC colonies", "assay": "Micropatterned hESC mesoendoderm pattern disruption (Brachyury immunofluorescence, Asymmetrical Ratio)", "conditions": "for Asymmetrical Ratio decrease relative to untreated control: 3 days of differentiation, control ratio 3; for Asymmetrical Ratio after treatment (average intensity ratio of ring area to off-ring area): human, 3 days", "description": "In order to generate gradients of mechanical stress, circle or square shapes of Matrigel matrix with two different sizes (785000 μm2 or 196250 μm2) were designed using AutoCAD software. Then polydimethylsiloxane (PDMS) stencils were fabricated by using a laser-cutter (Universal Laser System) to cut the designated shape patterns on a 127 μm thick PDMS sheet (Specialty Silicone Products Inc.) and then bonding it to a laser-cut, 2 mm thick PDMS gasket. For cell patterning, the PDMS stencil was first sealed into a 60 mm petri dish by adding 200 μl 70% ethanol and dried in the tissue culture hood, then Matrigel™ (BD Biosciences) matrix was coated by at least hour incubation with the Matrigel™ solution (FIG. 1). Thereafter cells were seeded at a density of 4 million cells/ml. After 1 hour incubation for cell attachment, the stencil and excess unattached cells were removed. The surface was then passivated with 0.5% pluronic acid for 10 mins before 3-time washing. The acquired patterned hESC were incubated overnight in mTesR1 maintenance medium (StemCell Technologies) for stabilization and the mesoendoderm induction was started the next day.\nThe differentiation of patterned hESC colonies were induced by mesoendoderm induction medium, which comprises of 100 ng/ml Activin, 25 ng/ml BMP4 and 10 ng/ml FGF2 in basal serum-free APEL™ medium (STEMdiff™, StemCell Technologies). For developmental toxicity testing, the patterned hESC colonies were cultured in mesoendoderm induction medium together with the test chemical. The induction lasted 3 days and the medium is half changed daily with/without the test chemical.\nSamples were fixed on Day 3 of differentiation. Immunofluorescence staining was done to check the expression distribution of early mesoendodermal marker Brachyury. Image acquisition was done under 10× objective using Olympus fluorescence microscope and Asymmetrical Ratio was calculated using MATLAB programming (FIG. 5). Results\nThree known teratogens (0.1 mM Valproic acid (VPA), 0.05 ug/ml 5-Fluorouracil (5-FU), and 0.8 mM Thalidomide) were tested using this model. Mesoendoderm induction medium together with the drug was added into our model and incubated for 3 days before the samples were fixed for immunofluorescence staining of Brachyury. Half of the medium was changed daily with the drug. An untreated control which was only cultured in mesoendoderm induction medium without any drug was also done. […] In order to measure the disruption, we used Asymmetrical Ratio as a parameter to evaluate the asymmetrical patterns with or without drug treatment, which indicate the average intensity ratio of “ring” area to “off-ring” area (FIG. 5)."}, "μP-hESC colonies": {"system": "μP-hESC colonies", "assay": "PCA of morphological features of mesoendoderm motif in μP-hESC colonies (dose-dependent developmental toxicity)", "protocol": "Alterations to the different morphological features of the mesoendoderm structural motif were quantitatively measured by image processing at different concentrations of drugs. These morphological features at different drug concentrations were analyzed with principal component analysis (PCA). A data point represents each morphological feature; the data point color represents the drug concentration used in the treatment. […] Data Collection Process: 1. Treat our μP-hESC colonies with 3 different concentrations of each drug and fix the samples on day 3 together with the untreated normal control samples. Acquire T immunofluorescence images of samples under Olympus fluorescence microscope. 2. Process all the T fluorescence images using Matlab to extract all the relevant morphological features of the samples representing the spatial distribution of the mesoendoderm motif (T^+ positive region in the images)."}, "human": {"system": "human", "conditions": "cited from earlier work"}, "[2]": {"system": "adult human dermal fibroblasts (aHDFs)", "assay": "Cytotoxicity test (MTS) on adult fibroblasts", "conditions": "at the drug's effective concentration (EC)"}, "hESC cell line H9 [3]": {"system": "hESC cell line H9", "assay": "Cytotoxicity test (MTS) on hESC", "conditions": "at the drug's effective concentration (EC)"}, "μP-hESC colony": {"system": "μP-hESC colony", "assay": "Live imaging / kymograph of collective cell migration in μP-hESC colony under drug treatment", "assay_type": "cell-based, human", "description": "Spatially localized differentiated cells (at edge of stem cell colony) underwent coordinated cell movement to form a 3D-like structural motif as observed by live imaging (FIG. 8D). The trajectory of the coordinated cell movement can be seen from a space-time plot (kymograph) of the differentiating stem cells (FIG. 8E)."}, "hESC cell line H9 [4]": {"system": "hESC cell line H9"}, "[5]": {"system": "adult human dermal fibroblasts (aHDFs)"}}, "note": "Where two headings read alike, the source gives them in different places.", "data": [{"smiles": "O=C1CCC(N2C(=O)c3ccccc3C2=O)C(=O)N1", "note": "(stereo not shown) [Thalidomide]", "values": [{"measurement": "Localization of the mesoendoderm motif (T+ region)", "setting": "[1]", "result": "misplaced"}, {"measurement": "Asymmetrical Ratio decrease relative to untreated control", "setting": "[1]; 0.8 mM Thalidomide", "result": "~70", "unit": "%"}, {"measurement": "Asymmetrical Ratio after treatment (average intensity ratio of ring area to off-ring area)", "setting": "[1]; 0.8 mM", "result": "~0.9"}, {"measurement": "Drug classification by developmental toxicity effect", "setting": "μP-hESC colonies", "result": "both teratogenic and embryotoxic"}, {"measurement": "Concentrations at which spatial distribution of mesoendoderm motif was significantly disrupted (PCA)", "setting": "μP-hESC colonies; human, 3 days", "result": ">= 300 μM"}, {"measurement": "Effective concentration (lowest concentration which significantly disrupted spatial localization of mesoendoderm motif)", "setting": "μP-hESC colonies; human, 3 days", "result": "~300", "unit": "µM"}, {"measurement": "Developmental deformation", "setting": "human", "result": "causes developmental deformation in human"}, {"measurement": "Toxicity to aHDFs", "setting": "[2]", "result": "not toxic"}, {"measurement": "H9 cell survival", "setting": "hESC cell line H9 [3]", "result": "> 50", "unit": "%"}, {"measurement": "Toxicity to H9 cells", "setting": "hESC cell line H9 [3]", "result": "toxic"}, {"measurement": "Trajectories of collective cell migration (kymograph)", "setting": "μP-hESC colony", "result": "disrupted"}]}, {"smiles": "O=c1[nH]cc(F)c(=O)[nH]1", "note": "[5-FU, 5-Fluorouracil]", "values": [{"measurement": "Asymmetrical Ratio decrease relative to untreated control", "setting": "[1]; 0.05 μg/ml 5-FU", "result": 46.7, "unit": "%"}, {"measurement": "Asymmetrical Ratio after treatment (average intensity ratio of ring area to off-ring area)", "setting": "[1]; 0.05 μg/ml", "result": 1.6}]}, {"smiles": "CC1=C(/C=C/C(C)=C/C=C/C(C)=C/C(=O)O)C(C)(C)CCC1", "note": "[RA, retinoic acid]", "values": [{"measurement": "Drug classification by developmental toxicity effect", "setting": "μP-hESC colonies", "result": "teratogenic"}, {"measurement": "Concentrations at which spatial distribution of mesoendoderm motif was significantly disrupted (PCA)", "setting": "μP-hESC colonies; human, 3 days", "result": ">= 0.0036 μg/ml"}, {"measurement": "Effective concentration (lowest concentration which significantly disrupted spatial localization of mesoendoderm motif)", "setting": "μP-hESC colonies; human, 3 days", "result": "~0.0036", "unit": "µg/mL"}, {"measurement": "Toxicity to aHDFs", "setting": "[2]", "result": "not toxic"}, {"measurement": "Toxicity to H9 cells", "setting": "hESC cell line H9 [3]", "result": "not toxic"}]}, {"smiles": "CCCC(CCC)C(=O)O", "note": "[VPA, Valproic acid]", "values": [{"measurement": "Localization of the mesoendoderm motif (T+ region)", "setting": "[1]", "result": "misplaced"}, {"measurement": "Asymmetrical Ratio decrease relative to untreated control", "setting": "[1]; 0.1 mM VPA", "result": "~70", "unit": "%"}, {"measurement": "Asymmetrical Ratio after treatment (average intensity ratio of ring area to off-ring area)", "setting": "[1]; 0.1 mM", "result": "~0.9"}, {"measurement": "Drug classification by developmental toxicity effect", "setting": "μP-hESC colonies", "result": "very embryotoxic"}, {"measurement": "Concentrations at which spatial distribution of mesoendoderm motif was significantly disrupted (PCA)", "setting": "μP-hESC colonies; human, 3 days", "result": ">= 0.8 mM"}, {"measurement": "Effective concentration (lowest concentration which significantly disrupted spatial localization of mesoendoderm motif)", "setting": "μP-hESC colonies; human, 3 days", "result": "~800", "unit": "µM"}, {"measurement": "Toxicity to H9 cells", "setting": "hESC cell line H9 [4]", "result": "very toxic"}, {"measurement": "H9 cell survival", "setting": "hESC cell line H9 [4]; human", "result": "~20", "unit": "%"}, {"measurement": "Toxicity to aHDFs", "setting": "[5]", "result": "a little toxic"}, {"measurement": "Trajectories of collective cell migration (kymograph)", "setting": "μP-hESC colony", "result": "disrupted"}]}, {"smiles": "CC1(C)S[C@@H]2[C@H](NC(=O)Cc3ccccc3)C(=O)N2[C@H]1C(=O)O", "note": "[Penicillin G]", "values": [{"measurement": "Localization of the mesoendoderm motif (T+ region)", "setting": "[1]; day3, FIG. 9B", "result": "remained unchanged"}, {"measurement": "PCA clustering of morphological features by drug concentration", "setting": "μP-hESC colonies; 3 concentrations of each drug, day 3", "result": "cannot be segregated"}, {"measurement": "Drug classification by developmental toxicity effect", "setting": "μP-hESC colonies; based on PCA and cytotoxicity test (MTS) results", "result": "non-developmental toxic"}, {"measurement": "Concentrations at which spatial distribution of mesoendoderm motif was significantly disrupted (PCA)", "setting": "μP-hESC colonies; day 3, μP-hESC colonies", "result": "> 1000", "unit": "µg/mL"}, {"measurement": "Effective concentration (lowest concentration which significantly disrupted spatial localization of mesoendoderm motif)", "setting": "μP-hESC colonies; μP-hESC models", "result": "above 1000 μg/ml"}, {"measurement": "Trajectories of collective cell migration (kymograph)", "setting": "μP-hESC colony; day2-3 of differentiation", "result": "unaffected"}]}]}
